Read-outs that look alike come from different tables or passages of the source.
Key:
[1] = Sweetness relative to sucrose
[2] = system: Dedonder's levan sucrase from B.subtilis BS5 (a clone from B.subtilis var. nigra); conditions: cited from earlier work

With `C[C@H]1O[C@H](O[C@]2(CCl)O[C@H](CCl)[C@@H](O)[C@@H]2O)[C@H](O)[C@@H](O)[C@H]1Cl` [4,1',6'-trichloro-4,6,1',6'-tetradeoxygalactosucrose] the “sweetness, times as sweet as sucrose” value ([1]; 8% solution) was 400 times as sweet as sucrose.
In the case of `O[C@@H]1[C@@H](O)[C@@H](O[C@]2(CCl)O[C@H](CCl)[C@@H](O)[C@@H]2O)OC[C@@H]1Cl` [Example 8], the “sweetness, times as sweet as sucrose” value ([1]; in a 2% solution) is reported as 25 times as sweet as sucrose.
For `OC[C@H]1O[C@H](O[C@]2(CO)O[C@H](CO)[C@@H](O)[C@@H]2O)[C@H](O)[C@@H](O)[C@H]1O` [Galactosucrose, β-D-fructofuranosyl (2→1)-D-galactopyranoside], the sweetness ([1]; only a trace of sweetness) was 10-15 % of sucrose.
For `OC[C@H]1O[C@@](CO)(O[C@H]2O[C@H](CO)[C@@H](O)[C@H](O)[C@H]2O)[C@@H](O)[C@@H]1O` [sucrose, β-D-fructofuranosyl α-D-glucopyranoside], the Km ([2]; Dedonder (loc.cit.) BS5 strain enzyme, read-out: Km (sucrose), quoted) is listed as roughly 20 mM and the Km ([2]; reported for Dedonder's levan sucrase, read-out: Km for sucrose) is listed as 20 mM.

Source: US4617269A, “Process for the preparation of fructosyl disaccharides” (priority 1983, dated 1986)
